Measurements published in ChEMBL document CHEMBL4354835, “Selective Blockade of Neuronal BK (α + β4) Channels Preventing Epileptic Seizure” (J Med Chem, 2020).
One block for each compound: values may come before it. Activity calls are given as the source filed them. No cut-off for these calls is given here.

What was measured:
[1] = species on record: Rattus norvegicus; assay: (§1) Neuroprotective activity in PTZ-induced epileptic seizure Sprague-Dawley rat model assessed as inhibition of hippocampal destruction by measuring increase in Nissl stained granular neurons in contralateral hippocampus DG region compound infused into hippocampal region and 10 mins later injected with PTZ and measured after 3 days by Nissl staining based microscopic analysis; type: functional, organism-based
[2] = species on record: Rattus norvegicus; assay: Effect on neuronal network in PTZ-induced epileptic seizures Sprague-Dawley rat model assessed as reduced total PSD frequency waves compound infused into hippocampal region and 10 mins later injected with PTZ and measured after 2 hrs by power spectral density analysis; type: functional, organism-based
[3] = species on record: Rattus norvegicus; assay: Anticonvulsant activity against PTZ-induced epileptic seizure Sprague-Dawley rat model assessed as latency time of seizures compound infused into hippocampal region and 10 mins later injected with PTZ and measured for 2 hrs post PTZ-stimulation (reference value: 108.5 +/- 8.63 sec); type: functional
[4] = species on record: Rattus norvegicus; assay: Effect on neuronal network in PTZ-induced epileptic seizures Sprague-Dawley rat model assessed as lowered PSD at delta wave band compound infused into hippocampal region and 10 mins later injected with PTZ and measured after 2 hrs by power spectral density analysis; type: functional, organism-based
[5] = species on record: Rattus norvegicus; assay: Effect on neuronal network in PTZ-induced epileptic seizures Sprague-Dawley rat model assessed as lowered PSD at gamma wave band compound infused into hippocampal region and 10 mins later injected with PTZ and measured after 2 hrs by power spectral density analysis; type: functional, organism-based
[6] = species on record: Rattus norvegicus; assay: (§2) Inhibition of C-Fos expression in PTZ-induced epileptic seizures Sprague-Dawley rat model assessed as inhibition of FLI-positive pyramidal neurons in CA3 region of contralateral hippocampus at 10 uM compound infused into hippocampal region and 10 mins later injected with PTZ and measured after 2 hrs by immunohistochemistry; type: functional, organism-based
[7] = species on record: Rattus norvegicus; assay: Effect on neuronal network in PTZ-induced epileptic seizures Sprague-Dawley rat model assessed as lowered PSD at theta wave band compound infused into hippocampal region and 10 mins later injected with PTZ and measured after 2 hrs by power spectral density analysis; type: functional, organism-based
[8] = species on record: Rattus norvegicus; assay: as §2, with “ipsilateral” for “contralateral”; type: functional, organism-based
[9] = species on record: Rattus norvegicus; assay: as §2, with “granular” for “pyramidal”, “DG” for “CA3”, “ipsilateral” for “contralateral”; type: functional, organism-based
[10] = species on record: Rattus norvegicus; assay: as §2, with “granular” for “pyramidal”, “DG” for “CA3”; type: functional, organism-based
[11] = target: T1, KCNMA1/KCNMB4 (Rattus norvegicus) (UniProt Q62976+Q9ESK8); assay: Inhibition of BK alpha/beta-4 in PTZ-stimulated rat hippocampal pyramidal neurons assessed as larger action potential width at 300 pA current injection at -80mV holding potential measured after 10 mins by whole cell current clamp assay; type: protein-complex assay
[12] = target: T1, KCNMA1/KCNMB4 (Rattus norvegicus); assay: Inhibition of BK alpha/beta-4 in PTZ-stimulated rat hippocampal pyramidal neurons assessed as increase in AHP size at 300 pA at -80mV holding potential measured after 10 mins by whole cell current clamp assay; type: protein-complex assay
[13] = species on record: Rattus norvegicus; assay: as §1, with “pyramidal” for “granular”, “CA1” for “DG”; type: functional, organism-based
[14] = target: T2, Calcium-activated potassium channel subunit beta-4 (Homo sapiens, UniProt Q86W47); assay: Binding affinity to NT-495 fluorophore reagent labelled human BK beta4 (45 to 166 residues) incubated for 30 mins by microscale thermophoresis assay
T2 sequence (Q86W47 whole entry): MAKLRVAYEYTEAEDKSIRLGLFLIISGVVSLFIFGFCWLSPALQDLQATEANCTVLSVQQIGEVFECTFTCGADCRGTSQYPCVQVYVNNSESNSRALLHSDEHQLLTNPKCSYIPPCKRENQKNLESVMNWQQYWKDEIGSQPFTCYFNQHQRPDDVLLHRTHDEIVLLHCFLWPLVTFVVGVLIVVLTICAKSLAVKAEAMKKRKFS

[15] = species on record: Rattus norvegicus; assay: Effect on neuronal network in PTZ-induced epileptic seizures Sprague-Dawley rat model assessed as lowered PSD at alpha wave band compound infused into hippocampal region and 10 mins later injected with PTZ and measured after 2 hrs by power spectral density analysis; type: functional, organism-based
[16] = species on record: Rattus norvegicus; assay: Anticonvulsant activity against PTZ-induced epileptic seizure Sprague-Dawley rat model assessed as reduction in mortality rate compound infused into hippocampal region and 10 mins later injected with PTZ and measured for 2 hrs post PTZ-stimulation; type: functional, organism-based
[17] = target: T1, KCNMA1/KCNMB4 (Rattus norvegicus); assay: Inhibition of BK alpha/beta-4 in PTZ-stimulated rat hippocampal pyramidal neurons assessed as slower decay of after hyperpolarization at 300 pA at -80mV holding potential measured after 10 mins by whole cell current clamp assay; type: protein-complex assay
[18] = species on record: Rattus norvegicus; assay: Anticonvulsant activity against PTZ-induced epileptic seizures Sprague-Dawley rat model assessed as decrease in number of seizures at high stage (stage 4 and 5) compound infused into hippocampal region and 10 mins later injected with PTZ and measured for 2 hrs post-PTZ stimulation; type: functional, organism-based
[19] = target: KCNMA1/KCNMB4 (Homo sapiens, UniProt Q12791+Q86W47); assay: Inhibition of human BK alpha/beta4 channel expressed in HEK293T cells assessed as K+ outward current fraction at 10 uM at -80 mV holding potential by whole cell patch clamp method relative to control; type: cell-based
[20] = species on record: Rattus norvegicus; assay: as §1, with “pyramidal” for “granular”, “CA3” for “DG”; type: functional, organism-based
[21] = species on record: Rattus norvegicus; assay: Effect on neuronal network in PTZ-induced epileptic seizures Sprague-Dawley rat model assessed as lowered PSD at beta wave band compound infused into hippocampal region and 10 mins later injected with PTZ and measured after 2 hrs by power spectral density analysis; type: functional, organism-based
[22] = species on record: Rattus norvegicus; assay: Anticonvulsant activity against PTZ-induced epileptic seizure Sprague-Dawley rat model assessed as duration of seizure compound infused into hippocampal region and 10 mins later injected with PTZ and measured for 2 hrs post PTZ-stimulation (reference value: 376 +/- 76.43 sec); type: functional
[23] = species on record: Rattus norvegicus; assay: Anticonvulsant activity against PTZ-induced epileptic seizure Sprague-Dawley rat model assessed as mortality rate compound infused into hippocampal region and 10 mins later injected with PTZ and measured for 2 hrs post PTZ-stimulation (reference value: 33.33%); type: functional

inhibition [11]: Active | inhibition [12]: inactive | Kd [14]: Not Active | inhibition [17]: inactive | Ratio [19]: 0.8
Structure (SMILES): CC[C@H](C)[C@H](NC(=O)[C@H](CC(C)C)NC(=O)CNC(=O)[C@H](Cc1ccccc1)NC(=O)[C@H](CO)NC(=O)CN)C(=O)N[C@@H](CC(=O)O)C(=O)N[C@H](C(=O)N[C@@H](CCCCN)C(=O)N[C@H]1CSSC[C@@H]2NC(=O)[C@H](CCCCN)NC(=O)CNC(=O)[C@H](CCC(N)=O)NC(=O)CNC(=O)[C@H](CO)NC(=O)CNC(=O)[C@H]([C@@H](C)O)NC(=O)[C@H](C(C)C)NC(=O)[C@H](CCC(=O)O)NC(=O)[C@H](CCCCN)NC(=O)[C@@H]3CSSC[C@@H](C(=O)N[C@@H](Cc4ccc(O)cc4)C(=O)O)N[C@@H](CCCNC(=N)N)C(=O)[C@H](CSSC[C@H](NC(=O)[C@H](CCC(=O)O)NC(=O)[C@H](CO)NC(=O)[C@H](CO)NC(=O)[C@H](C)NC(=O)[C@H](Cc4ccccc4)NC1=O)C(=O)N[C@@H](Cc1c[nH]c4ccccc14)C(=O)N[C@@H]([C@@H](C)O)C(=O)N[C@@H](C)C(=O)N3)N[C@@H](CCC(N)=O)C(=O)NC(=O)[C@H](CC(N)=O)NC(=O)[C@H](CC(N)=O)NC(=O)[C@H](CCC(N)=O)NC2=O)C(C)C
Activity [1]: Active | inhibition [2]: inactive | Time [3]: 219.5 to 266.5 s | Activity [4]: inactive | Activity [5]: Active | inhibition [6]: inactive | Activity [7]: inactive | inhibition [8]: inactive | inhibition [9]: inactive | inhibition [10]: inactive | Activity [13]: inactive | Activity [15]: inactive | Activity [16]: inactive | Activity [18]: inactive | Activity [20]: Active | Activity [21]: inactive | Time [22]: 316.66 to 353.33 s

Structure (SMILES): CCCC(CCC)C(=O)O [VALPROIC ACID]
Time [3]: 156.63 s | mortality [23]: 0% | Time [22]: 181.25 s
